Source: patent US20250270209A1 (INTERLINE THERAPEUTICS, INC., priority 2022, published 2025)

Experiments:
[1] = target: T1, wild type LRRK2 overexpressed in recombinant HEK-293T cells (Homo sapiens, UniProt Q5S007); test: pS935 LRRK2 Cell Assay (HTRF, phospho-LRRK2 Ser935); assay type: cell-based; settings: LRRK2 Inhibition, Table 8, 2 hours compound incubation
T1 construct: host or cells: HEK293T (transient transfection with pCMV-LRRK2 WT plasmid)
Outline: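 HEK-293T cells transiently transfected with wild-type LRRK2 for 24 h, plated overnight, then treated 2 h at 37° C with compound (top 10 μM, 3-fold, 9 doses, duplicates, 0.2% DMSO). Lysates probed overnight at 23° C by sandwich HTRF for pSer935; 665/615 nm ratio read.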

LRRK2 wild type enzyme = LRRK2 wild type enzyme (Homo sapiens, UniProt Q5S007); test: Biochemical Assay: LRRK2 TR-FRET (LanthaScreen) kinase assay with LRRKtide substrate; settings: LRRK2 Inhibition, Table 8
Sequence of LRRK2 wild type enzyme (Q5S007 whole entry): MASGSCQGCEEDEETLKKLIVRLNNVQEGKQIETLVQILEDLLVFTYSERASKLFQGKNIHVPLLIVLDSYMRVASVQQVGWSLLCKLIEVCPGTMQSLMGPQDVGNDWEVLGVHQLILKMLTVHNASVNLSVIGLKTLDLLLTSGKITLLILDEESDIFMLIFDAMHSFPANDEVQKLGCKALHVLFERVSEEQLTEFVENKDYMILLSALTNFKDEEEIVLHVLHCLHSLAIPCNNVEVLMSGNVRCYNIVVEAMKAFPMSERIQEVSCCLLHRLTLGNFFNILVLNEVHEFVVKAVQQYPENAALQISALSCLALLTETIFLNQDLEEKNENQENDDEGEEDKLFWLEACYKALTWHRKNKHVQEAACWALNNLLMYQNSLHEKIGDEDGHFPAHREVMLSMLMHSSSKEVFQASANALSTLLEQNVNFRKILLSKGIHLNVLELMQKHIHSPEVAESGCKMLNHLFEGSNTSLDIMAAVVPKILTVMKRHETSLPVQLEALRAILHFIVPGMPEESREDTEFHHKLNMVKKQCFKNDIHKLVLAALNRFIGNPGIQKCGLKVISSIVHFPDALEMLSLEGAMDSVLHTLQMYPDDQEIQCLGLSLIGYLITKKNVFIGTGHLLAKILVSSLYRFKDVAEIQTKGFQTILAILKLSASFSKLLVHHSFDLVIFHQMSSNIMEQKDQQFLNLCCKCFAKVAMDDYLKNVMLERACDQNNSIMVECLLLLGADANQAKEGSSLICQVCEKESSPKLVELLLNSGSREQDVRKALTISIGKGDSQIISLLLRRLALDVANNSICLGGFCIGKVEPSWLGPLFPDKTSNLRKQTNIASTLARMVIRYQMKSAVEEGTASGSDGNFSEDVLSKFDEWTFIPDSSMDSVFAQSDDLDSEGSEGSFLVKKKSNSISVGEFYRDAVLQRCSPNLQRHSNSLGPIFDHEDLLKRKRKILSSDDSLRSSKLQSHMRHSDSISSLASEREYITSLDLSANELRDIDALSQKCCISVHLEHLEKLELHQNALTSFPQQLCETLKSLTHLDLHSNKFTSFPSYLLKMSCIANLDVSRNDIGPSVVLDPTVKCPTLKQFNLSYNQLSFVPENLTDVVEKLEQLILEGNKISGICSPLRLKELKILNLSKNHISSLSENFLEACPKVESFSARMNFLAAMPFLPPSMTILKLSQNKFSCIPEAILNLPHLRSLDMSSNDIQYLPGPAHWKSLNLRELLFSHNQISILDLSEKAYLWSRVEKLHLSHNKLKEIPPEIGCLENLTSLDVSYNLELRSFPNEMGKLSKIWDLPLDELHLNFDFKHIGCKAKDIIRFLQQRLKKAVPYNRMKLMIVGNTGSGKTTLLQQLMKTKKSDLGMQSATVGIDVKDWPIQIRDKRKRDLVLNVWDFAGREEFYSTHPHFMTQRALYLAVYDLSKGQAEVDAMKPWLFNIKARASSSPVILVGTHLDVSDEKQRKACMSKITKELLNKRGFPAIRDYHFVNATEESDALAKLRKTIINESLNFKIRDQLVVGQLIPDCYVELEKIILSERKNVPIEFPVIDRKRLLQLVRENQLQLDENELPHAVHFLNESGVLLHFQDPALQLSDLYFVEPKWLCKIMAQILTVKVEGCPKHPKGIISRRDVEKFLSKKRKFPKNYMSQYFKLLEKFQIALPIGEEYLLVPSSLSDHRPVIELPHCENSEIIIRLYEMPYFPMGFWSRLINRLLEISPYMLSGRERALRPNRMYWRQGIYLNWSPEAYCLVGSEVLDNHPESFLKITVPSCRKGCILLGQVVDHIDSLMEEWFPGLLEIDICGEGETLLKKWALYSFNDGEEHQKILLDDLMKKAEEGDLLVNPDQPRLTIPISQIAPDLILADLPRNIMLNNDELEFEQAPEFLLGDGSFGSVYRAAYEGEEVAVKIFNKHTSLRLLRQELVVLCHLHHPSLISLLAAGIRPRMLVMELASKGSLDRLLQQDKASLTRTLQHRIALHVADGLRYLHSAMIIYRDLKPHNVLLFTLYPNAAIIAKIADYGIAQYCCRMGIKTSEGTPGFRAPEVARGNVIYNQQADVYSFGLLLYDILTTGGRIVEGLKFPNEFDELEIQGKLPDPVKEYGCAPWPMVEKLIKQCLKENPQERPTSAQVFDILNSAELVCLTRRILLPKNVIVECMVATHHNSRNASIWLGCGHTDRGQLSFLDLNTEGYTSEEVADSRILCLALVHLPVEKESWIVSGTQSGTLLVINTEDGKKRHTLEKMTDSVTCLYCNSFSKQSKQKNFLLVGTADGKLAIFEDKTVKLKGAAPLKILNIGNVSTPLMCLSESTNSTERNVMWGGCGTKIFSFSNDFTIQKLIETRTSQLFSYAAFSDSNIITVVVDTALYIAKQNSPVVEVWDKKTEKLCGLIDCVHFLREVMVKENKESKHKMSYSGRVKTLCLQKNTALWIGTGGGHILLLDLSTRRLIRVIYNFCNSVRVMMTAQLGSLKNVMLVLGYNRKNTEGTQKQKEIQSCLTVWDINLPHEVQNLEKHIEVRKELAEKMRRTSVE
Outline: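 Human wild-type LRRK2 (3 nM) preincubated 15 min with compound (11-point, 3-fold, top 10 μM), then reacted 120 min at 23 °C with 400 nM LRRKtide and 25 μM ATP, pH 8.0. Stopped with EDTA; Tb-anti-pLRRKtide TR-FRET read after 30 min.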

T1 sequence (Q5S007 whole entry): as above

SMILES | IC50 [1] | IC50 (LRRK2 wild type enzyme)
C[C@@H]1C[C@H](n2c(CC(=O)Nc3cnc(C(F)F)nc3)nc3cnc4ccc(C#N)cc4c32)CCO1 [Compound 254, N-[2-(difluoromethyl)-5-pyrimidinyl]{3-[(2R,4R)-2-methyltetrahydro-2H-pyran-4-yl]-12-cyano-3,5,8-triazatricyclo[7.4.0.0^2,6]trideca-1(9),2(6),4,7,10,12-hexaen-4-yl}acetamide] | 27.3 nM | 0.546 nM
C[C@@H]1C[C@H](n2c(CC(=O)Nc3cc(C4CCC4)no3)nc3cnc4ccc(C#N)cc4c32)CCO1 [Compound 340, N-(3-cyclobutyl-5-isoxazolyl){3-[(2R,4R)-2-methyltetrahydro-2H-pyran-4-yl]-12-cyano-3,5,8-triazatricyclo[7.4.0.0^2,6]trideca-1(9),2(6),4,7,10,12-hexaen-4-yl}acetamide] | 15.7 nM | 1.53 nM
CC(=O)N1CC(c2nc3cnc4ccc(C#N)cc4c3n2[C@@H]2CCO[C@H](C)C2)C1 [Compound 63, 2-(1-acetylazetidin-3-yl)-1-[(2R,4R)-2-methyloxan-4-yl]-1H-imidazo[4,5-c]quinoline-8-carbonitrile] | 1850 nM | 12.4 nM
CC(C(=O)NCC1CC1)c1nc2cnc3ccc(C#N)cc3c2n1[C@@H]1CCO[C@H](C)C1 (stereo partly drawn) [Compound 369, N-cyclopropylmethyl2-{3-[(2R,4R)-2-methyltetrahydro-2H-pyran-4-yl]-12-cyano-3,5,8-triazatricyclo[7.4.0.0^2,6]trideca-1(13),2(6),4,7,9,11-hexaen-4-yl}propionamide] | 801 nM | 13.8 nM
C[C@@H]1C[C@H](n2c(CC(=O)Nc3cc(C4CC4)on3)nc3cnc4ccc(C#N)cc4c32)CCO1 [Compound 359, N-(5-cyclopropyl-3-isoxazolyl){3-[(2R,4R)-2-methyltetrahydro-2H-pyran-4-yl]-12-cyano-3,5,8-triazatricyclo[7.4.0.0^2,6]trideca-1(9),2(6),4,7,10,12-hexaen-4-yl}acetamide] | 4.76 nM | 0.525 nM
C[C@@H]1C[C@H](n2c([C@H]3CCN(S(C)(=O)=O)C3)nc3cnc4ccc(C#N)cc4c32)CCO1 [Compound 39, 2-[(3S)-1-methanesulfonylpyrrolidin-3-yl]-1-[(2R,4R)-2-methyloxan-4-yl]-1H-imidazo[4,5-c]quinoline-8-carbonitrile] | 894 nM | 5.27 nM
C[C@@H]1C[C@H](n2c(CC(=O)Nc3cccnc3)nc3cnc4ccc(Cl)cc4c32)CCO1 [Compound 325, N-3-pyridyl{3-[(2R,4R)-2-methyltetrahydro-2H-pyran-4-yl]-12-chloro-3,5,8-triazatricyclo[7.4.0.0^2,6]trideca-1(9),2(6),4,7,10,12-hexaen-4-yl}acetamide] | 2.54 nM | 0.44 nM
Cc1ncnc(C)c1NC(=O)Cc1nc2cnc3ccc(C#N)cc3c2n1[C@@H]1CCO[C@H](C)C1 [Compound 260, N-(4,6-dimethyl-5-pyrimidinyl){3-[(2R,4R)-2-methyltetrahydro-2pyran-4-yl]-12-cyano-3,5,8-triazatricyclo[7.4.0.0^2,6]trideca-1,4,6,8,10,12-hexaen-4-yl}acetamide] | 30.4 nM | 0.395 nM
C[C@@H]1C[C@H](n2c([C@@H]3CCN(C(=O)C4CC4)C3)nc3cnc4ccc(C#N)cc4c32)CCO1 [Compound 40, 2-[(3R)-1-cyclopropanecarbonylpyrrolidin-3-yl]-1-[(2R,4R)-2-methyloxan-4-yl]-1H-imidazo[4,5-c]quinoline-8-carbonitrile] | 685 nM | 9.19 nM
COc1ncc(NC(=O)Cc2nc3cnc4ccc(C#N)cc4c3n2[C@@H]2CCO[C@H](C)C2)c(C)n1 [Compound 243, N-(2-methoxy-4-methyl-5-pyrimidinyl){3-[(2R,4R)-2-methyltetrahydro-2H-pyran-4-yl]-12-cyano-3,5,8-triazatricyclo[7.4.0.0^2,6]trideca-1(9),2(6),4,7,10,12-hexaen-4-yl}acetamide] | 11.5 nM | 0.565 nM
C[C@@H]1C[C@H](n2c(CC(=O)Nc3ccno3)nc3cnc4ccc(Cl)cc4c32)CCO1 [Compound 351, N-5-isoxazolyl{3-[(2R,4R)-2-methyltetrahydro-2H-pyran-4-yl]-12-chloro-3,5,8-triazatricyclo[7.4.0.0^2,6]trideca-1(9),2(6),4,7,10,12-hexaen-4-yl}acetamide] | 10.4 nM | 0.597 nM
COc1cc(F)ncc1NC(=O)Cc1nc2cnc3ccc(C#N)cc3c2n1[C@@H]1CCO[C@H](C)C1 [Compound 230, N-(6-fluoro-4-methoxy-3-pyridyl){3-[(2R,4R)-2-methyltetrahydro-2H-pyran-4-yl]-12-cyano-3,5,8-triazatricyclo[7.4.0.0^2,6]trideca-1,4,6,8,10,12-hexaen-4-yl}acetamide] | 4.9 nM | 0.442 nM
C[C@@H]1C[C@H](n2c(CC3CN(S(C)(=O)=O)C3)nc3cnc4ccc(C#N)cc4c32)CCO1 [Compound 65, 2-[(1-methanesulfonylazetidin-3-yl)methyl]-1-[(2R,4R)-2-methyloxan-4-yl]-1H-imidazo[4,5-c]quinoline-8-carbonitrile] | 525 nM | 5.03 nM
Cc1cc(F)ncc1NC(=O)Cc1nc2cnc3ccc(C#N)cc3c2n1[C@@H]1CCO[C@H](C)C1 [Compound 205, N-(6-fluoro-4-methyl-3-pyridyl){3-[(2R,4R)-2-methyltetrahydro-2H-pyran-4-yl]-12-cyano-3,5,8-triazatricyclo[7.4.0.0^2,6]trideca-1,4,6,8,10,12-hexaen-4-yl}acetamide] | 11.1 nM | 0.387 nM
C[C@@H]1C[C@H](n2c(CC(=O)N[C@H]3C[C@@H](OCc4ccccn4)C3)nc3cnc4ccc(C#N)cc4c32)CCO1 [Compound 162, 2-{8-cyano-1-[(2R,4R)-2-methyloxan-4-yl]-1H-imidazo[4,5-c]quinolin-2-yl}-N-[(1rs,3rs)-3-[(pyridin-2-yl)methoxy]cyclobutyl]acetamide] | 55.2 nM | 0.485 nM
C[C@@H]1C[C@H](n2c(CC(=O)Nc3cnn(C)c(=O)c3)nc3cnc4ccc(C#N)cc4c32)CCO1 [Compound 264, N-(1-methyl-6-oxo-1,6-dihydro-4-pyridazinyl){3-[(2R,4R)-2-methyltetrahydro-2H-pyran-4-yl]-12-cyano-3,5,8-triazatricyclo[7.4.0.0^2,6]trideca-1,4,6,8,10,12-hexaen-4-yl}acetamide] | 74.4 nM | 0.486 nM
C[C@@H]1C[C@H](n2c(CC(=O)NC3CCc4cccnc43)nc3cnc4ccc(C#N)cc4c32)CCO1 (stereo partly drawn) [Compound 151, 2-{8-cyano-1-[(2R,4R)-2-methyloxan-4-yl]-1H-imidazo[4,5-c]quinolin-2-yl}-N-{5H,6H,7H-cyclopenta[b]pyridin-7-yl}acetamide] | 23.3 nM | 0.55 nM
C[C@@H]1C[C@H](n2c(CC(=O)N[C@H]3CCCc4cccnc43)nc3cnc4ccc(C#N)cc4c32)CCO1 [Compound 358, N-[(S)-5,6,7,8-tetrahydro-8-quinolyl]{3-[(2R,4R)-2-methyltetrahydro-2H-pyran-4-yl]-12-cyano-3,5,8-triazatricyclo[7.4.0.0^2,6]trideca-1(9),2(6),4,7,10,12-hexaen-4-yl}acetamide] | 24.5 nM | 0.602 nM
